Results from paper PMC12591484 (PLOS One, 2025).

Columns and labels:
Test in all cases: Effects of cysteine modification with pCMBS on Low/High GABA response ratio
Format in all cases: cell-based
[1] = target: T1, α1M236Cβ3γ2L GABAA receptors (Homo sapiens, UniProt P14867+P18507+P28472, M263C); details: post- to pre-modification Low/High GABA response ratio
T1 construct: expressed in transfected cells; host or cells: Xenopus oocytes injected with capped mRNA, 1α:1β:5γ
Description: (§1) The pCMBS exposure was calculated as concentration × time (e.g. 100 μM × 30 s = 3000 µM × s). […] The pCMBS exposures were varied to generate modification ratio vs. pCMBS exposure curves. Each oocyte was studied at a single pCMBS exposure condition. For each cysteine mutant, 5 oocytes were studied at 4 to 7 pCMBS exposure conditions. The modification ratio vs. pCMBS exposure curves were fit with mono-phasic or bi-phasic logistic equations similar to Eq 1, using non-linear least squares.

[2] = target: T2, α1β3L231Cγ2L GABAA receptors (Homo sapiens, UniProt P14867+P18507+P28472, L256C); details: post- to pre-modification Low/High GABA response ratio
T2 construct: expressed in transfected cells; host or cells: Xenopus oocytes injected with capped mRNA, 1α:1β:5γ
Description: as §1

[3] = target: T3, α1β3γ2L246C GABAA receptors (Homo sapiens, UniProt P14867+P18507+P28472, L285C); details: post- to pre-modification Low/High GABA response ratio
T3 construct: expressed in transfected cells; host or cells: Xenopus oocytes injected with capped mRNAs mixed 1α:1β:5γ
Description: as §1

[4] = target: T4, α1β3γ2I242C GABAA receptors (Homo sapiens, UniProt P14867+P18507+P28472, I281C); details: post- to pre-modification Low/High GABA response ratio
T4 construct: expressed in transfected cells; host or cells: Xenopus oocytes injected with capped mRNAs mixed 1α:1β:5γ
Description: as §1

[5] = target: T5, α1β3γ2S301C GABAA receptors (Homo sapiens, UniProt P14867+P18507+P28472, S340C); details: post- to pre-modification Low/High GABA response ratio
T5 construct: expressed in transfected cells; host or cells: Xenopus oocytes injected with capped mRNAs mixed 1α:1β:5γ
T5 sequence (P14867 28-456): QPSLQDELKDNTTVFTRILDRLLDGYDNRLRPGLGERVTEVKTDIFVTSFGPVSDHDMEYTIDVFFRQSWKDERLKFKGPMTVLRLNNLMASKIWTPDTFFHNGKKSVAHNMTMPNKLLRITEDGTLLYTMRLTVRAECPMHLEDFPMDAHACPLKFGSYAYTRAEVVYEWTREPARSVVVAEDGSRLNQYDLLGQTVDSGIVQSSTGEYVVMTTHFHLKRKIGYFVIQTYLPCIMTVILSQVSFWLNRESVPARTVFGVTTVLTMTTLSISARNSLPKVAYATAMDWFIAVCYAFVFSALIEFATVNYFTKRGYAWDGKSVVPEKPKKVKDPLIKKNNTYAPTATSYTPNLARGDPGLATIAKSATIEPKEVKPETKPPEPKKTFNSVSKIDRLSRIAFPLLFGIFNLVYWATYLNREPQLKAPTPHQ
T5 sequence (P28472 26-473): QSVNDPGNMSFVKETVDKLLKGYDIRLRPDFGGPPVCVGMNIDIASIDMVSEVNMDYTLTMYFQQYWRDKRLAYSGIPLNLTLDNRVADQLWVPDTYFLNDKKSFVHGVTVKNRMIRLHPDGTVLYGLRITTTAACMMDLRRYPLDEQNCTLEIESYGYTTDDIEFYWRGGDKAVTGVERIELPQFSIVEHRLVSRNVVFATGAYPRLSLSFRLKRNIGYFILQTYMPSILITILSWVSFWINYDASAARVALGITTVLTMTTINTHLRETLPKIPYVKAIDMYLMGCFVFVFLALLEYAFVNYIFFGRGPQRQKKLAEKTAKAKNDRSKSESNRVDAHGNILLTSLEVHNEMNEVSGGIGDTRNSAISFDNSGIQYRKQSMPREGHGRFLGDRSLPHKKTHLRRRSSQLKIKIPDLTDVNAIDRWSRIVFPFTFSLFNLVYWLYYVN
T5 sequence (P18507 40-475 S340C): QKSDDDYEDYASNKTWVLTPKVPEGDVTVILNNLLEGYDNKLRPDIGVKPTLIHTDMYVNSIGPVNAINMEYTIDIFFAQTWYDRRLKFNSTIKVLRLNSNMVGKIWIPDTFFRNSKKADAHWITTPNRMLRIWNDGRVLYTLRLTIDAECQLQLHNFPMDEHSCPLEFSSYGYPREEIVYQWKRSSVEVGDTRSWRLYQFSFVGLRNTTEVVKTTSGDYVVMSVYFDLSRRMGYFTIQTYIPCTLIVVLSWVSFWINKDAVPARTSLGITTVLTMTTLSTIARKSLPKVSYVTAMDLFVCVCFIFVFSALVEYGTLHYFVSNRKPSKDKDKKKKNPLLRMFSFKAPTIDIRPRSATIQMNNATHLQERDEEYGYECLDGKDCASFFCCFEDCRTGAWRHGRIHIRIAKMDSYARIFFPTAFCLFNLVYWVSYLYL
Description: as §1

[6] = target: T6, α1A291Cβ3γ2L GABAA receptors (Homo sapiens, UniProt P14867+P18507+P28472, A318C)
T6 construct: expressed in transfected cells; host or cells: Xenopus oocytes injected with capped mRNA, 1α:1β:5γ
Description: as §1

[7] = target: T7, α1S270Cβ3γ2L GABAA receptors (Homo sapiens, UniProt P14867+P18507+P28472, S297C)
T7 construct: expressed in transfected cells; host or cells: Xenopus oocytes injected with capped mRNA, 1α:1β:5γ
Description: as §1

[8] = target: T8, α1β3M286Cγ2L GABAA receptors (Homo sapiens, UniProt P14867+P18507+P28472, M311C); details: post- to pre-modification Low/High GABA response ratio
T8 construct: expressed in transfected cells; host or cells: Xenopus oocytes injected with capped mRNA, 1α:1β:5γ
Description: as §1

T7 sequence (P14867 28-456 S297C, one chain of several): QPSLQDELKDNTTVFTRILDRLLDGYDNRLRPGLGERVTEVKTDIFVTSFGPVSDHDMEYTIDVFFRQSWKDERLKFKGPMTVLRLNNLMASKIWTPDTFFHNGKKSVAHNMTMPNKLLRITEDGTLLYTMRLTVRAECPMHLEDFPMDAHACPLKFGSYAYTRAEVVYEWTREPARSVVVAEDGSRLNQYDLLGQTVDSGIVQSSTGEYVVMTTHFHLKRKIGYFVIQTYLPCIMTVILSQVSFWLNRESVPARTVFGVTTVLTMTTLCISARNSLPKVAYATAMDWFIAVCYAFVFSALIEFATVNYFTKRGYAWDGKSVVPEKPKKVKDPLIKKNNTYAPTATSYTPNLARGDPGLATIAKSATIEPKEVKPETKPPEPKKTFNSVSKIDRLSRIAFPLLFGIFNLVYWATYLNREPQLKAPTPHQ
T7 sequence (P18507 40-475, one chain of several): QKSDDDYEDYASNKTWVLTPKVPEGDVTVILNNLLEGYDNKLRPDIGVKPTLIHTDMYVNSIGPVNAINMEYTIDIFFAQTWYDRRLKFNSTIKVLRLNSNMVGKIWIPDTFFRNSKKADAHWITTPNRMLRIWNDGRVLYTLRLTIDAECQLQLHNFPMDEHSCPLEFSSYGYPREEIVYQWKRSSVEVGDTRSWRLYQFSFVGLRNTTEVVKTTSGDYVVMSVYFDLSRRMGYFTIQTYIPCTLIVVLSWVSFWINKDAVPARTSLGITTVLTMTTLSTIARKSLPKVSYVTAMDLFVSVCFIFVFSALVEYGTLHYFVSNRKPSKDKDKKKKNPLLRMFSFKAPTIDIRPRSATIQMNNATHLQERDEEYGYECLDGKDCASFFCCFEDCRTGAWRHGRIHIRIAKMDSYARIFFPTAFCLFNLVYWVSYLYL
T6 sequence (P14867 28-456 A318C, one chain of several): as the sequence (P14867 28-456 S297C, one chain of several) above, with C270S, A291C counted along it
T6 sequence (P18507 40-475, one chain of several): as the sequence (P18507 40-475, one chain of several) above
T4 sequence (P18507 40-475 I281C, one chain of several): as the sequence (P18507 40-475, one chain of several) above, with I242C counted along it
T2 sequence (P28472 26-473 L256C, one chain of several): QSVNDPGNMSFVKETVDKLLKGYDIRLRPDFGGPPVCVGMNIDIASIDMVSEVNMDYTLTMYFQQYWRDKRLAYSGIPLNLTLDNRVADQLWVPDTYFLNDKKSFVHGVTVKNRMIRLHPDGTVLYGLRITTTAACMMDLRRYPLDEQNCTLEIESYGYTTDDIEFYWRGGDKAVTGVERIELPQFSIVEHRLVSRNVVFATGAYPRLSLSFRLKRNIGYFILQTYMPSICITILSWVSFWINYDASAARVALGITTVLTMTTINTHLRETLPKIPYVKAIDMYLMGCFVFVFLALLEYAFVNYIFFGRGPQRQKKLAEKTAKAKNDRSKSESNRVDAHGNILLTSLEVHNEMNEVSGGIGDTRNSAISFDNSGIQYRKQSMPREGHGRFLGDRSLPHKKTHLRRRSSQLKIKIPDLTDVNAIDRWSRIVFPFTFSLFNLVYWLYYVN
T2 sequence (P18507 40-475, one chain of several): as the sequence (P18507 40-475, one chain of several) above
T3 sequence (P18507 40-475 L285C, one chain of several): as the sequence (P18507 40-475, one chain of several) above, with L246C counted along it
T8 sequence (P28472 26-473 M311C, one chain of several): as the sequence (P28472 26-473 L256C, one chain of several) above, with C231L, M286C counted along it
T8 sequence (P18507 40-475, one chain of several): as the sequence (P18507 40-475, one chain of several) above
T1 sequence (P14867 28-456 M263C, one chain of several): as the sequence (P14867 28-456 S297C, one chain of several) above, with M236C, C270S counted along it
T1 sequence (P18507 40-475, one chain of several): as the sequence (P18507 40-475, one chain of several) above

## O=S(=O)([O-])c1cc[c]([Hg][Cl])cc1.[Na+] [pCMBS, para-chloromercuribenzenesulfonic acid sodium salt]
[1]
  Maximal pCMBS Modification Ratio Mean ± SD: 13 ± 1.4
[2]
  Maximal pCMBS Modification Ratio Mean ± SD: 13 ± 1.3
[3]
  Maximal pCMBS Modification Ratio Mean ± SD: 5 ± 1.0
[4]
  Maximal pCMBS Modification Ratio Mean ± SD: 17 ± 4.9
[5]
  Maximal pCMBS Modification Ratio Mean ± SD: 5.3 ± 0.23
[6]; 3 mM GABA + 10 µM pCMBS for 90 s
  modification ratio, control modification, single oocyte example (Fig 2A): 4.0
[6]; post- to pre-modification Low/High GABA response ratio
  Maximal pCMBS Modification Ratio Mean ± SD: 4.7 ± 0.61
[7]; α1S270C, biphasic effect of increasing pCMBS exposure
  pCMBS exposure with maximum effect on modification ratio: 300 µM x s
[7]; α1S270Cβ3γ2L, post- to pre-modification Low/High GABA response ratio, biphasic
  Maximal pCMBS Modification Ratio Mean ± SD: 11.8 ± 0.77
[8]
  Maximal pCMBS Modification Ratio Mean ± SD: 9 ± 3.1
